Assay results from US20180271863A1, “TARGETING P2 PURINERGIC RECEPTORS TO TREAT HEPATOCELLULAR CARCINOMA (HCC)” (Baylor College of Medicine, priority 2015, published 2018).

Experiments:
Format in all cases: cell-based, human
[1] = test system: SNU-387 cells; test: BrdU incorporation (proliferation) in SNU-387 cells; conditions: SFM 24 hours, ATP 24 hours
Protocol: To determine whether P2 purinergic receptor activation influences HCC cell proliferation, BrdU incorporation was assessed in HCC cells maintained in SFM for 24 hours and treated with ATP for 24 hours. ATP treatment alone was sufficient to induce proliferation in each of these cell lines (Huh7, 34%; Hep3B, 46%; SNU-387, 47% and PLC/PRF/5, 24%), identifying nucleotides as liver cancer cell mitogens (FIG. 7A).
Normal human primary hepatocytes isolated from healthy adults (no known history of HCC) in suspension or freshly-frozen prior to shipment (Cryoport Systems, CA) were purchased from Triangle Research Labs, NC. Fresh hepatocytes were plated on collagen-coated tissue culture plates or glass coverslips in Williams E complete media with additives (10% fetal bovine serum, 2 mM glutamine, […] insulin, 4 ng/ml glucagon, […] transferrin, 2.5 ng/ml sodium selenite, 10,000 U/ml penicillin, […] streptomycin, 50 g/ml gentamycin) for 3 h to ensure hepatocyte adherence to plates. […]
Formalin-fixed and paraffin embedded liver sections from HCC patients were analyzed by immunohistochemistry with anti-P2X3 antibody (Abcam, Cambridge, Mass.). […] BrdU positive cells were counted and expressed as a percentage of the total number of cells in ten randomly selected high-power fields (20×) per coverslips.

[2] = test system: Huh7 cells; test: MTT assay of cell proliferation and viability, Huh7; conditions: ATP 100 μM, 18 h
Protocol: (§1) Normal human primary hepatocytes isolated from healthy adults (no known history of HCC) in suspension or freshly-frozen prior to shipment (Cryoport Systems, CA) were purchased from Triangle Research Labs, NC. Fresh hepatocytes were plated on collagen-coated tissue culture plates or glass coverslips in Williams E complete media with additives (10% fetal bovine serum, 2 mM glutamine, […] insulin, 4 ng/ml glucagon, […] transferrin, 2.5 ng/ml sodium selenite, 10,000 U/ml penicillin, […] streptomycin, 50 g/ml gentamycin) for 3 h to ensure hepatocyte adherence to plates. Subsequently, hepatocytes were maintained in Williams E minimal media free from serum and growth factors for 24 h prior to treatment. Human hepatocellular carcinoma derived Huh7, and Hep3B, were cultured in Minimum Essential Medium Eagle (MEM); SNU-387 was cultured in Roswell Park Memorial Institute (RPMI) medium and PLC/PRF/5 cultured in Dulbecco's Modified Eagle's medium (DMEM). All maintenance culture media were supplemented with 10% fetal bovine serum (FBS), L-Glutamine (2 mM), penicillin (100 units/ml) and streptomycin ([…]) at 37° C. and 5% CO2. […]
(§2) Cell viability was determined using the 3-(4, 5-dimethylthiazol-2-yl)-2,5-diphenyltetrazolium (MTT, Sigma) assays. […] After shaking the plates for 30 min, the absorbance at 570 nm was measured (background subtraction at […]).

[3] = test system: SNU-387 cells; test: MTT assay of cell proliferation and viability, SNU-387; conditions: ATP 100 μM, 18 h
Protocol: as §1, §2

[4] = test system: PLC/PRF/5 cells; test: MTT assay of cell proliferation and viability, PLC/PRF/5; conditions: ATP 100 μM, 18 h
Protocol: as §1, §2

[5] = test system: Huh7 cells; test: qRT-PCR of cyclin mRNA in Huh7 cells; conditions: 6 h treatment
Protocol: Normal human primary hepatocytes isolated from healthy adults (no known history of HCC) in suspension or freshly-frozen prior to shipment (Cryoport Systems, CA) were purchased from Triangle Research Labs, NC. Fresh hepatocytes were plated on collagen-coated tissue culture plates or glass coverslips in Williams E complete media with additives (10% fetal bovine serum, 2 mM glutamine, […] insulin, 4 ng/ml glucagon, […] transferrin, 2.5 ng/ml sodium selenite, 10,000 U/ml penicillin, […] streptomycin, 50 g/ml gentamycin) for 3 h to ensure hepatocyte adherence to plates. Subsequently, hepatocytes were maintained in Williams E minimal media free from serum and growth factors for 24 h prior to treatment. Human hepatocellular carcinoma derived Huh7, and Hep3B, were cultured in Minimum Essential Medium Eagle (MEM); SNU-387 was cultured in Roswell Park Memorial Institute (RPMI) medium and PLC/PRF/5 cultured in Dulbecco's Modified Eagle's medium (DMEM). All maintenance culture media were supplemented with 10% fetal bovine serum (FBS), L-Glutamine (2 mM), penicillin (100 units/ml) and streptomycin ([…]) at 37° C. and 5% CO2. Cells were maintained in serum free media (containing 2 mM L-Glutamine, 100 units/ml penicillin and ([…])) streptomycin for 24 h prior to treatment. Total RNA was isolated from human livers or cells using Trizol Reagent according to manufacturer's instructions (Invitrogen, NY). Complementary DNA (cDNA) synthesis was performed by reverse transcription of total RNA (2 μg) with high capacity cDNA reverse transcription kit (Applied Biosystems, Foster city, CA). The cDNA product was amplified by qRT-PCR in Step One Plus Real-Time PCR system using SYBR Green PCR Master Mix (Applied Biosystems, Grand Island, N.Y.). Quantitative expression values were determined using the […] as specified by manufacturers using GAPDH as a control.

[6] = test system: Huh7 cells; test: Western blotting for JNK phosphorylation in Huh7 cells; conditions: 100 μM, 15 min
Protocol: Applicants have previously shown that extracellular nucleotide-mediated activation of JNK signaling induces cell-cycle progression and proliferation of rat primary hepatocytes in vitro. To determine whether extracellular nucleotides induce JNK signaling in transformed hepatocytes, Huh7 cells were treated with nucleotides for 5, 15 and 30 min and total protein extracts were analyzed by Western blotting for JNK phosphorylation (Ser^Thr/Tyi). ATPγS treatment alone was sufficient to induce JNK phosphorylation as early as 15 min (1.7 fold) (FIG. 10A). […] Total protein extracts were obtained by homogenizing cells in total lysis buffer (50 mM Tris-HCl, pH 7.5, 0.5 M NaCl, 2 mM EGTA, 2 mM EDTA, 1.0% Triton X-100, 0.25% Deoxycholate, 1 m/ml pepstatin, 1.0 m/ml leupeptin, 1.0 m/ml aprotinin, 1.0 mM phenylmethylsulfonyl fluoride, 1.0 mM Dithiothreitol, 2.0 mM activated Na3VO4, and 2.0 mM NaF) and centrifuging at 14,000 rpm for 10 min (4° C.). Equal amounts of total proteins as determined by BCA protein Assay (Pierce, Rockford, Ill.) were analyzed by Western blotting. Blots were probed with antibody specific for a-tubulin or GAPDH to ensure equal loading of proteins in each lane.

| SMILES | proliferation (BrdU incorporation) induced by ATP [1] [%] | increase in cell proliferation and viability (MTT) [2] [%] | increase in cell proliferation and viability (MTT) [3] [%] | increase in cell proliferation and viability (MTT) [4] [%] | Cyclin D3 mRNA expression vs untreated cells [5] [fold] | JNK phosphorylation [6] [fold] |
| --- | --- | --- | --- | --- | --- | --- |
| Nc1ncnc2c1ncn2[C@@H]1O[C@H](COP(=O)(O)OP(=O)(O)OP(=O)(O)O)[C@@H](O)[C@H]1O [ATP] | 47 | 65 | 90 | 43 | – | – |
| Nc1ncnc2c1ncn2[C@@H]1O[C@H](COP(=O)(O)OP(=O)(O)OP(O)(O)=S)[C@@H](O)[C@H]1O [ATPγS] | – | – | – | – | 2.1 | 1.7 |
